Reference: patent US20020051978A1, “Methods and compositions for the identification, assessment, prevention and therapy of human cancers” (priority 2000, published 2002)
Read-outs that look alike come from different tables or passages of the source.

Key:
[1] = tested on: 60 cancer cell lines (NCI 60 cancer cell line series); assay: NCI-DTP in vitro cancer screen, sulforhodamine B (SRB) growth inhibition, 48 hour exposure; type: cell-based, human; design: key to sensitivity class Ovarian OVCAR-8 CL6005 / sensitivity class Ovarian SK-OV-3 CL6011 / sensitivity class Prostate DU-145 CL11003 / sensitivity class NSCLC NCI-H522 CL1003 / sensitivity class Ovarian IGROV1 CL6010 / sensitivity class Ovarian OVCAR-4 CL6002 / sensitivity class Prostate PC-3(I) CL11001 / sensitivity class Renal A498 CL9013 / sensitivity class Renal SN12C CL9008: sensitivity class: 1 = Low, 2 = Medium, 3 = High
Procedure, shortened: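 Sixty NCI-DTP cancer lines plated at line-specific densities, dosed on day 1 in duplicate with 5 concentrations at ten-fold intervals. After 48 h exposure, cell mass read by SRB staining; GI50 (50% growth inhibition) taken from dose-response curves and expressed as -log GI50.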

[2] = tested on: 60 cancer cell lines (NCI 60 cancer cell line series); settings: cited from earlier work

Sc1ncnc2nc[nH]c12 [6-mercaptopurine]
2: classification of cell line as Low(1), Medium(2) or High(3) sensitivity to compound ([1]; Breast MCF7(I) (CL5001)) | classification of cell line as Low(1), Medium(2) or High(3) sensitivity to compound ([1]; Breast MCF7/ADRr (CL5002)) | classification of cell line as Low(1), Medium(2) or High(3) sensitivity to compound ([1]; Breast MDA-MB-435 (CL5011)) | classification of cell line as Low(1), Medium(2) or High(3) sensitivity to compound ([1]; Breast MDA-N CL5012) | classification of cell line as Low(1), Medium(2) or High(3) sensitivity to compound ([1]; Breast T-47D (CL5014)) | classification of cell line as Low(1), Medium(2) or High(3) sensitivity to compound ([1]; CNS SF-268 CL12014) | classification of cell line as Low(1), Medium(2) or High(3) sensitivity to compound ([1]; CNS SF-295 CL12015) | classification of cell line as Low(1), Medium(2) or High(3) sensitivity to compound ([1]; CNS SF-539 CL12016) | classification of cell line as Low(1), Medium(2) or High(3) sensitivity to compound ([1]; CNS SNB-75(I) CL12005) | classification of cell line as Low(1), Medium(2) or High(3) sensitivity to compound ([1]; CNS U251(I) CL12009) | classification of cell line as Low(1), Medium(2) or High(3) sensitivity to compound ([1]; Colon COLO-250 CL4010) | classification of cell line as Low(1), Medium(2) or High(3) sensitivity to compound ([1]; Colon HCC-2998 (CL4002)) | classification of cell line as Low(1), Medium(2) or High(3) sensitivity to compound ([1]; Colon HCT-15 CL4015) | classification of cell line as Low(1), Medium(2) or High(3) sensitivity to compound ([1]; Colon HCT-116 (CL4003)) | classification of cell line as Low(1), Medium(2) or High(3) sensitivity to compound ([1]; Colon HT29(I) CL4001) | classification of cell line as Low(1), Medium(2) or High(3) sensitivity to compound ([1]; Colon KM12 (CL4017)) | classification of cell line as Low(1), Medium(2) or High(3) sensitivity to compound ([1]; Colon SW-620 (CL4009)) | classification of cell line as Low(1), Medium(2) or High(3) sensitivity to compound ([1]; Leukemia HL-60(I) (CL7008)) | classification of cell line as Low(1), Medium(2) or High(3) sensitivity to compound ([1]; Leukemia MOLT-4 (CL7006)) | classification of cell line as Low(1), Medium(2) or High(3) sensitivity to compound ([1]; Leukemia RPMI-8226(I) (CL7010)) | classification of cell line as Low(1), Medium(2) or High(3) sensitivity to compound ([1]; Melanoma MALME-3M CL10002) | classification of cell line as Low(1), Medium(2) or High(3) sensitivity to compound ([1]; Melanoma SK-MEL-2 (CL10005)) | classification of cell line as Low(1), Medium(2) or High(3) sensitivity to compound ([1]; Melanoma SK-MEL-5 (CL10007)) | classification of cell line as Low(1), Medium(2) or High(3) sensitivity to compound ([1]; Melanoma UACC-62 (CL10020)) | classification of cell line as Low(1), Medium(2) or High(3) sensitivity to compound ([1]; NSCLC HOP-62 (CL1026)) | classification of cell line as Low(1), Medium(2) or High(3) sensitivity to compound ([1]; NSCLC HOP-92 (CL1029)) | sensitivity class NSCLC NCI-H23(I) CL1001 ([1]; cell line NSCLC NCI-H23(I), CL1001) | sensitivity class NSCLC NCI-H332M CL1017 ([1]; cell line NSCLC NCI-H332M, CL1017) | sensitivity class NSCLC NCI-H460 CL1021 ([1]; cell line NSCLC NCI-H460, CL1021) | sensitivity class NSCLC NCI-H522 CL1003 ([1]; cell line NSCLC NCI-H522, CL1003) | sensitivity class Ovarian IGROV1 CL6010 ([1]; cell line Ovarian IGROV1, CL6010) | sensitivity class Ovarian OVCAR-4 CL6002 ([1]; cell line Ovarian OVCAR-4, CL6002) | sensitivity class Ovarian OVCAR-5 CL6003 ([1]; cell line Ovarian OVCAR-5, CL6003) | sensitivity class Ovarian OVCAR-8 CL6005 ([1]; cell line Ovarian OVCAR-8, CL6005) | sensitivity class Prostate DU-145 CL11003 ([1]; cell line Prostate DU-145, CL11003) | sensitivity class Prostate PC-3(I) CL11001 ([1]; cell line Prostate PC-3(I), CL11001) | sensitivity class Renal 786-O CL9018 ([1]; cell line Renal 786-O, CL9018) | sensitivity class Renal ACHN CL9023 ([1]; cell line Renal ACHN, CL9023) | sensitivity class Renal CAKI-1 CL9015 ([1]; cell line Renal CAKI-1, CL9015) | sensitivity class Renal TK10 CL9024 ([1]; cell line Renal TK10, CL9024) | sensitivity class Renal UO-31 CL9004 ([1]; cell line Renal UO-31, CL9004)
3.6: -Log (GI50) ([2]; NSCLC EKVX (CL1008))
4.9: -Log (GI50) ([2]; CNS U251(I) CL12009)
4.3: -Log (GI50) ([2]; NSCLC NCI-H226 CL1013)
4.5: -Log (GI50) ([2]; Renal RXF-393 CL9016)
4.8: -Log (GI50) ([2]; Breast HS-578T CL5006) | -Log (GI50) ([2]; Melanoma UACC-257 (CL10021))
6.1: -Log (GI50) ([2]; Ovarian OVCAR-3 CL6001)
5.5: -Log (GI50) ([2]; Breast MCF7/ADRr (CL5002)) | -Log (GI50) ([2]; Colon HCC-2998 (CL4002))
5.1: -Log (GI50) ([2]; CNS SNB-75(I) CL12005) | -Log (GI50) ([2]; Colon KM12 (CL4017)) | -Log (GI50) ([2]; Melanoma SK-MEL-5 (CL10007)) | -Log (GI50) ([2]; NSCLC NCI-H332M CL1017) | -Log (GI50) ([2]; Ovarian IGROV1 CL6010) | -Log (GI50) ([2]; Ovarian OVCAR-4 CL6002) | -Log (GI50) ([2]; Ovarian OVCAR-5 CL6003)
1: classification of cell line as Low(1), Medium(2) or High(3) sensitivity to compound ([1]; Breast BT-549 (CL5013)) | classification of cell line as Low(1), Medium(2) or High(3) sensitivity to compound ([1]; Breast HS-578T CL5006) | classification of cell line as Low(1), Medium(2) or High(3) sensitivity to compound ([1]; Breast MDA-MB-231 CL5005) | classification of cell line as Low(1), Medium(2) or High(3) sensitivity to compound ([1]; CNS SNB-19 (CL12002)) | classification of cell line as Low(1), Medium(2) or High(3) sensitivity to compound ([1]; Melanoma SK-MEL-28 (CL10008)) | classification of cell line as Low(1), Medium(2) or High(3) sensitivity to compound ([1]; Melanoma UACC-257 (CL10021)) | classification of cell line as Low(1), Medium(2) or High(3) sensitivity to compound ([1]; NSCLC A549/ATCC (CL1004)) | classification of cell line as Low(1), Medium(2) or High(3) sensitivity to compound ([1]; NSCLC EKVX (CL1008)) | classification of cell line as Low(1), Medium(2) or High(3) sensitivity to compound ([1]; NSCLC NCI-H226 CL1013) | sensitivity class Renal A498 CL9013 ([1]; cell line Renal A498, CL9013) | sensitivity class Renal RXF-393 CL9016 ([1]; cell line Renal RXF-393, CL9016) | sensitivity class Renal SN12C CL9008 ([1]; cell line Renal SN12C, CL9008)
5.2: -Log (GI50) ([2]; Colon SW-620 (CL4009)) | -Log (GI50) ([2]; Melanoma SK-MEL-2 (CL10005)) | -Log (GI50) ([2]; Renal ACHN CL9023) | -Log (GI50) ([2]; Renal UO-31 CL9004)
6.2: -Log (GI50) ([2]; Melanoma M14 (CL10014))
6.0: -Log (GI50) ([2]; Ovarian SK-OV-3 CL6011)
5.9: -Log (GI50) ([2]; Breast MDA-MB-435 (CL5011)) | -Log (GI50) ([2]; Leukemia CCRF-CEM(I) (CL7003)) | -Log (GI50) ([2]; Leukemia SR CL7019)
6.4: -Log (GI50) ([2]; Melanoma LOX IMVI CL10001)
5.8: -Log (GI50) ([2]; Breast MCF7(I) (CL5001)) | -Log (GI50) ([2]; Breast MDA-N CL5012) | -Log (GI50) ([2]; Leukemia MOLT-4 (CL7006)) | -Log (GI50) ([2]; Leukemia RPMI-8226(I) (CL7010)) | -Log (GI50) ([2]; Melanoma UACC-62 (CL10020)) | -Log (GI50) ([2]; NCSLC NCI-H522 CL1003)
6.5: -Log (GI50) ([2]; Leukemia K562(I) CL7005)
4.2: -Log (GI50) ([2]; Renal A498 CL9013)
5.4: -Log (GI50) ([2]; Breast T-47D (CL5014)) | -Log (GI50) ([2]; CNS SF-268 CL12014) | -Log (GI50) ([2]; Colon HCT-15 CL4015) | -Log (GI50) ([2]; Colon HT29(I) CL4001) | -Log (GI50) ([2]; Melanoma MALME-3M CL10002) | -Log (GI50) ([2]; NSCLC NCI-H23(I) CL1001) | -Log (GI50) ([2]; Prostate PC-3(I) CL11001)
5.7: -Log (GI50) ([2]; NSCLC HOP-62 (CL1026)) | -Log (GI50) ([2]; Renal 786-O CL9018) | -Log (GI50) ([2]; Renal TK10 CL9024)
4.6: -Log (GI50) ([2]; NSCLC A549/ATCC (CL1004)) | -Log (GI50) ([2]; Renal SN12C CL9008)
3.5: -Log (GI50) ([2]; Melanoma SK-MEL-28 (CL10008))
5.6: -Log (GI50) ([2]; CNS SF-539 CL12016) | -Log (GI50) ([2]; Colon HCT-116 (CL4003)) | -Log (GI50) ([2]; Leukemia HL-60(I) (CL7008)) | -Log (GI50) ([2]; NSCLC HOP-92 (CL1029)) | -Log (GI50) ([2]; Ovarian OVCAR-8 CL6005) | -Log (GI50) ([2]; Prostate DU-145 CL11003) | -Log (GI50) ([2]; Renal CAKI-1 CL9015)
3: classification of cell line as Low(1), Medium(2) or High(3) sensitivity to compound ([1]; Leukemia CCRF-CEM(I) (CL7003)) | classification of cell line as Low(1), Medium(2) or High(3) sensitivity to compound ([1]; Leukemia K562(I) CL7005) | classification of cell line as Low(1), Medium(2) or High(3) sensitivity to compound ([1]; Leukemia SR CL7019) | classification of cell line as Low(1), Medium(2) or High(3) sensitivity to compound ([1]; Melanoma LOX IMVI CL10001) | classification of cell line as Low(1), Medium(2) or High(3) sensitivity to compound ([1]; Melanoma M14 (CL10014)) | sensitivity class Ovarian OVCAR-3 CL6001 ([1]; cell line Ovarian OVCAR-3, CL6001) | sensitivity class Ovarian SK-OV-3 CL6011 ([1]; cell line Ovarian SK-OV-3, CL6011)
4.7: -Log (GI50) ([2]; Breast MDA-MB-231 CL5005)
5.3: -Log (GI50) ([2]; CNS SF-295 CL12015) | -Log (GI50) ([2]; Colon COLO-250 CL4010) | -Log (GI50) ([2]; NSCLC NCI-H460 CL1021)
3.9: -Log (GI50) ([2]; Breast BT-549 (CL5013)) | -Log (GI50) ([2]; CNS SNB-19 (CL12002))
